The values that follow come from article PMC12505902, “Inhibitors of trehalose-6-phosphate synthase activity in fungal pathogens compromise thermal tolerance pathways” (mBio, 2025).

Test [1] deals with trehalose content of wild-type C. albicans. The experiment in a line: Trehalose measurement (colorimetric glucose assay after trehalase). The conditions noted are these: 0.5 mM 4456dh. The format is cell-based. The method, then:
Given that 4456dh inhibits the activity of CaTps1 and CnTps1 in vitro and has bioactivity against multiple Candida and Cryptococcus species, we tested whether 4456dh affects trehalose production in cells. We quantified trehalose levels in cells treated with 4456dh at sub-lethal concentrations as determined by the MIC assays using a colorimetric spectrophotometric assay. We measured trehalose production in wild-type C. albicans at 30°C and 42°C, in the presence and absence of 4456dh. […] However, we observed a significant increase in trehalose content when C. albicans was exposed to high temperature stress (P < 0.0001; Fig. 5A).
Fig 5 4456dh treatment results in reduced trehalose accumulation and a decrease in Tps1-dependent virulence factors. […] Trehalose was measured using a colorimetric glucose assay after treatment of cultures with trehalase. […] Cells were harvested, stained in India Ink, and analyzed using differential interference contrast imaging. […]
(§1) 124 technical replicates. Growth, as determined by a reading of absorbance at 600 nm, was
(§2) 125 normalized to untreated controls and was corrected for the absorbance of 4456dh in the YPD […]
(§3) 129 overnight cultures was quantified by measuring the OD600 and corrected for the background
(§4) 130 absorbance of the medium. Antifungal potency for 4456dh was assessed by minimum inhibitory […]

In test [2] the test system is trehalose content of C. neoformans. The description is as above. Type of test: cell-based. The conditions noted are these: 37°C, sublethal dose (0.5 mM 4456dh), P < 0.05; dose-dependent. The method, then:
Fig 5 4456dh treatment results in reduced trehalose accumulation and a decrease in Tps1-dependent virulence factors. Trehalose accumulation measurements for C. albicans (A) and C. neoformans (B) cultured at indicated temperatures in the absence or presence of 0.5 mM 4456dh. Trehalose was measured using a colorimetric glucose assay after treatment of cultures with trehalase. Statistical comparisons were done with a one-way analysis of variance (ANOVA) analysis followed by a post hoc Tukey’s test. Error bars represent SE. (C) C. albicans WT strain SC5314 cells were treated with 0.5 mM, 1.0 mM, and 5 mM 4456dh. […] Cells were harvested, stained in India Ink, and analyzed using differential interference contrast imaging. […]
as §1, §2, §3, §4
137 replicates. Growth, as determined by a reading of absorbance at 600 nm, was normalized to
138 untreated controls and was corrected for the absorbance of 4456dh in the YPD medium. […]
139 minimum inhibitory concentration causing 80% growth reduction, or MIC80, was determined based […]

For `Cn1cc(-c2csc(NC(=O)Cc3ccccn3)n2)cn1` [Compound 4456dh], the “change in trehalose content” value was “no significant change detected” in test [1] (30°C) and “approximate twofold decrease” in test [1] (42°C). The change in trehalose result in test [2] is listed as “significant decrease in trehalose”.
